Converted amounts (≈) assume the structure as drawn.
How the values were obtained:
[1] = test system: lung cancer cell line (A-549); experiment: Preliminary cytotoxicity screening against lung cancer cell line A-549 (SRB assay); assay type: cell-based, human; details: for IC50: Homo sapiens, A549, 50% reduction in absorbance at 562 nm relative to untreated cells, Table 1 (esters VII, acids IX), read-out: ED50 (cytotoxicity against A-549); for IC50 / ED50 (cytotoxicity against A-549): A-549, SRB assay; for ED50 (cytotoxicity against A-549): 50% reduction in absorbance at 562 nm, Table 2 (tromethamine salts X)
Description: (§1) Compounds were assayed for in vitro cytotoxicity in a panel of human tumor cell lines at the School of Pharmacy, University of North Carolina at Chapel Hill, according to procedures described previously [Lee, K. H., Lin, Y. M., Wu, T. S., Zhang, D. C., Yamagishi, T., Hayashi, T., Hall, I. H., Chang, J. J., Wu, R. Y., Yang, T. H. The cytotoxic principles of Prunella vulgaris, Psychotria serpens, and Hyptis capitata: Ursolic acid and related derivatives. Planta Med. 1988, 54, 308-11; Boyd, M. R. Status of the National Cancer Institute preclinical antitumor drug discovery screen: implications for selection of new agents for clinical trial. Devita, V. T., Jr. Hellman, S., Rosenberg, S. A., Eds, J. B. Cancer: Principles and Practice of Oncology Update, 1989, 3: pp1-12, Lippincoft: Philadephia; Monks, A., Scudiero, D., Skehan, P., Shoemaker, R., Paull, K., Vistica, D., Hose, C., Langley, J., Cronise, P., Vaigro-Wolff, A., Gray-Goodrich, M., Campbell, H., Mayo, J., Boyd, M. Feasibility of a high-flux anticancer drug screen using a diverse panel of cultured human tumor cell lines. J. Natl. Cancer Inst. 1991, 83, 757-66.] The cell lines included human ovarian cancer (1A9), ileocecal carcinoma (HCT-8), lung carcinoma (A-549), glioblastoma (U-87-MG), bone (HOS), epidermoid carcinoma of the naynx (KB), P-gp-expressing epidermoid carcinoma of the nasopharynx (KB-VIN), and melanoma (SKMEL-2) cell line. The cytotoxic effects of each compound were obtained as EC50 values, which represent the molar drug concentrations required to cause 50% inhibition.
Preliminary screening of antitumor activity was based on the cytotoxicity tested in human long cancer (A-549) cell lines. […] Among 3-carboxylic acid derivatives (IX), the cytotoxicity was not remarkable when the m-position of 2-phenyl group was substituted by OCH3 group (IX-3, 7, 11). ED50 values were greater than 20 μg/mL. […] The antitumor activity was not good, if there was no substitution on the m-position of 2-phenyl group ([…]).

[2] = test system: human ovarian cancer (IA9) cell line; experiment: Activity against HTCL replication, IA9; assay type: cell-based; details: ovarian cancer IA9; mean ED50
Description: as §1
Antitumor activity of compounds IX-8 and X-8 was further tested on the following 8 cancer cell lines: CAKI, HOS, KB, KB-VIN, SK-MEL-2, U87-MG, HCT-8 and IA9. […] It is worth mentioning that these two compounds were quite active against human ovarian cancer cells (IA9), which were known to have a high level of drug resistant P-glycoprotein. IC50 of compound IX-8 against these cancer cells is only 0.03 μg/mL. Thus, this compound is really worth developing, particular against drug resistant ovarian cancer.

[3] = test system: melanoma (SK-MEL-2) cell line; experiment: Activity against HTCL replication, SK-MEL-2; assay type: cell-based, human; details: mean ED50
Description: as §1, with “The cell lines included human ovarian cancer (1A9), ileocecal carcinoma (HCT-8), lung carcinoma (A-549), glioblastoma (U-87-MG), bone (HOS), epidermoid carcinoma of the naynx (KB), P-gp-expressing epidermoid carcinoma of the nasopharynx (KB-VIN), and melanoma (SKMEL-2) cell line. The cytotoxic effects of each compound were obtained as EC50 values, which represent the molar drug concentrations required to cause 50% inhibition.” left out

bone (HOS) cell line = experiment: Activity against HTCL replication, HOS; assay type: cell-based, human; details: mean ED50
Description: as §1, with “The cell lines included human ovarian cancer (1A9), ileocecal carcinoma (HCT-8), lung carcinoma (A-549), glioblastoma (U-87-MG), bone (HOS), epidermoid carcinoma of the naynx (KB), P-gp-expressing epidermoid carcinoma of the nasopharynx (KB-VIN), and melanoma (SKMEL-2) cell line. The cytotoxic effects of each compound were obtained as EC50 values, which represent the molar drug concentrations required to cause 50% inhibition.” left out

[4] = test system: ileocecal carcinoma (HCT-8) cell line; experiment: Activity against HTCL replication, HCT-8; assay type: cell-based, human; details: mean ED50
Description: as §1, with “The cell lines included human ovarian cancer (1A9), ileocecal carcinoma (HCT-8), lung carcinoma (A-549), glioblastoma (U-87-MG), bone (HOS), epidermoid carcinoma of the naynx (KB), P-gp-expressing epidermoid carcinoma of the nasopharynx (KB-VIN), and melanoma (SKMEL-2) cell line. The cytotoxic effects of each compound were obtained as EC50 values, which represent the molar drug concentrations required to cause 50% inhibition.” left out

[5] = test system: glioblastoma (U87-MG) cell line; experiment: Activity against HTCL replication, U87-MG; assay type: cell-based, human; details: mean ED50
Description: as §1, with “The cell lines included human ovarian cancer (1A9), ileocecal carcinoma (HCT-8), lung carcinoma (A-549), glioblastoma (U-87-MG), bone (HOS), epidermoid carcinoma of the naynx (KB), P-gp-expressing epidermoid carcinoma of the nasopharynx (KB-VIN), and melanoma (SKMEL-2) cell line. The cytotoxic effects of each compound were obtained as EC50 values, which represent the molar drug concentrations required to cause 50% inhibition.” left out

Q: Which melting point does the source give for O=C(O)C1C(=O)c2cc(Cl)ccc2N=C1c1ccccc1 (centres unmarked) [IX-15, 6-Chloro-2-phenyl-4-quinolone-3-carboxylic acid] here?
A: 254.2 to 255.6 °C (dec.)

Q: Which IC50 [1] does the source give for CCOC(=O)c1c(-c2cccc(F)c2)[nH]c2ccc(Cl)cc2c1=O [VII-5, Ethyl 3′-fluoro-6-chloro-2-phenyl-4-quinolone-3-carboxylate] here?
A: > 20 µg/mL

Q: Which melting point does the source give for COc1ccc2[nH]c(-c3cccc(Cl)c3)c(C(=O)O)c(=O)c2c1 [IX-9, 3′-Chloro-6-methoxy-2-phenyl-4-quinolone-3-carboxylic acid] here?
A: 223 °C (dec.)

Q: And the IC50 [1]?
A: 20 µg/mL (≈ 60.7 µM)

Q: For “6-Methoxy-2-phenyl-4-quinolone-3-carboxylic acid tromethamine salt [Compound X-11]”, which “ED50 (cytotoxicity against A-549)” value [1] is on record?
A: >20 µg/mL

Q: For COc1cccc(-c2[nH]c3ccc(Cl)cc3c(=O)c2C(=O)O)c1.NC(CO)(CO)CO [Compound X-7, 3′-Methoxy-6-chloro-2-phenyl-4-quinolone-3-carboxylic acid tromethamine salt], which “ED50 (cytotoxicity against A-549)” value [1] is on record?
A: >20 µg/mL

Q: With O=C(O)C1C(=O)c2cc3c(cc2N=C1c1ccccc1)OCO3 (centres unmarked) [IX-22, 6,7-Methylenedioxy-2-phenyl-4-quinolone-3-carboxylic acid] as the molecule, how does the melting point read?
A: 267.5 to 269.2 °C (dec.)

Q: Which IC50 [1] does the source give for O=C(O)c1c(-c2cccc(Cl)c2)[nH]c2ccc(F)cc2c1=O [IX-1, 3′-Chloro-6-fluoro-2-phenyl-4-quinolone-3-carboxylic acid] here?
A: 20 µg/mL (≈ 63 µM)

Q: For COc1cccc(-c2[nH]c3ccc(F)cc3c(=O)c2C(=O)O)c1 [IX-3, 6-Fluoro-3′-methoxy-2-phenyl-4-quinolone-3-carboxylic acid], which melting point is on record?
A: 231 °C

Q: What about the IC50 [1] of the same molecule?
A: > 20 µg/mL

Q: What does the source list for O=C(O)c1c(-c2cccc(F)c2)[nH]c2ccc(F)cc2c1=O [IX-2, 3′,6-Difluoro-2-phenyl-4-quinolone-3-carboxylic acid]?
A: melting point: 272 °C (dec.); IC50 [1]: 0.5 µg/mL (≈ 1.66 µM)

Q: For CCOC(=O)c1c(-c2cccc(OC)c2)[nH]c2ccc(OC)cc2c1=O [VII-10, Ethyl 3′,6-dimethoxy-2-phenyl-4-quinolone-3-carboxylate], which IC50 [1] is on record?
A: > 20 µg/mL

Q: For O=C(O)c1c(-c2cccc(Cl)c2)[nH]c2ccc(Cl)cc2c1=O [IX-6, 3′,6-Dichloro-2-phenyl-4-quinolone-3-carboxylic acid], which melting point is on record?
A: 260 °C (dec.)

Q: And the IC50 [1]?
A: > 20 µg/mL

Q: For COc1cccc(-c2[nH]c3ccc(Cl)cc3c(=O)c2C(=O)O)c1 [IX-7, 3′-Methoxy-6-chloro-2-phenyl-4-quinolone-3-carboxylic acid], which melting point is on record?
A: 243 °C (dec.)

Q: What about the IC50 [1] of the same molecule?
A: > 20 µg/mL

Q: For NC(CO)(CO)CO.O=C(O)c1c(-c2cccc(F)c2)[nH]c2ccc(F)cc2c1=O [Compound X-2, 3′,6-Difluoro-2-phenyl-4-quinolone-3-carboxylic acid tromethamine salt], which “ED50 (cytotoxicity against A-549)” value [1] is on record?
A: 4.3 µg/mL

Q: With O=C(O)C1C(=O)c2cc(F)ccc2N=C1c1ccccc1 (centres unmarked) [IX-4, 6-Fluoro-2-phenyl-4-quinolone-3-carboxylic acid] as the molecule, how does the melting point read?
A: 297 °C

Q: For NC(CO)(CO)CO.O=C(O)c1c(-c2cccc(Cl)c2)[nH]c2ccc(F)cc2c1=O [Compound X-1, 3′-Chloro-6-fluoro-2-phenyl-4-quinolone-3-carboxylic acid tromethamine salt], which “ED50 (cytotoxicity against A-549)” value [1] is on record?
A: 17.6 µg/mL

Q: For COc1ccc2c(c1)C(=O)C(C(=O)O)C(c1ccccc1)=N2 (centres unmarked) [IX-11, 6-Methoxy-2-phenyl-4-quinolone-3-carboxylic acid], which melting point is on record?
A: > 300 °C

Q: And the “cytotoxicity / antitumor activity in words” value ([1]; A-549, preliminary screening)?
A: not good

Q: And the IC50 [1]?
A: > 20 µg/mL

Q: Which IC50 [1] does the source give for CCOC(=O)c1c(-c2cccc(OC)c2)[nH]c2ccc(Cl)cc2c1=O [VII-7, Ethyl 3′-methoxy-6-chloro-2-phenyl-4-quinolone-3-carboxylate] here?
A: > 20 µg/mL

Q: For CCOC(=O)c1c(-c2cccc(Cl)c2)[nH]c2ccc(OC)cc2c1=O [VII-9, Ethyl 3′-chloro-6-methoxy-2-phenyl-4-quinolone-3-carboxylate], which IC50 [1] is on record?
A: > 20 µg/mL

Q: With NC(CO)(CO)CO.O=C(O)c1c(-c2cccc(F)c2)[nH]c2ccc(Cl)cc2c1=O [Compound X-5, 3′-Fluoro-6-chloro-2-phenyl-4-quinolone-3-carboxylic acid tromethamine salt] as the molecule, how does the “ED50 (cytotoxicity against A-549)” value [1] read?
A: 10.9 µg/mL

Q: With NC(CO)(CO)CO.O=C(O)c1c(-c2cccc(Cl)c2)[nH]c2ccc(Cl)cc2c1=O [Compound X-6, 3′,6-Dichloro-2-phenyl-4-quinolone-3-carboxylic acid tromethamine salt] as the molecule, how does the “ED50 (cytotoxicity against A-549)” value [1] read?
A: >20 µg/mL

Q: For O=C(O)c1c(-c2cccc(F)c2)[nH]c2ccc(Cl)cc2c1=O [IX-5, 3′-Fluoro-6-chloro-2-phenyl-4-quinolone-3-carboxylic acid], which melting point is on record?
A: > 300 °C

Q: What about the IC50 [1] of the same molecule?
A: 1.8 µg/mL (≈ 5.67 µM)

Q: With COc1cccc(-c2[nH]c3ccc(OC)cc3c(=O)c2C(=O)O)c1 [IX-10, 3′,6-Dimethoxy-2-phenyl-4-quinolone-3-carboxylic acid] as the molecule, how does the melting point read?
A: > 300 °C

Q: And the IC50 [1]?
A: > 20 µg/mL

Q: For COc1ccc2[nH]c(-c3cccc(Cl)c3)c(C(=O)O)c(=O)c2c1.NC(CO)(CO)CO [Compound X-9, 3′-Chloro-6-methoxy-2-phenyl-4-quinolone-3-carboxylic acid tromethamine salt], which “ED50 (cytotoxicity against A-549)” value [1] is on record?
A: 17.6 µg/mL

Q: With COc1ccc2[nH]c(-c3cccc(F)c3)c(C(=O)O)c(=O)c2c1.NC(CO)(CO)CO [Compound X-8, 3′-Fluoro-6-methoxy-2-phenyl-4-quinolone-3-carboxylic acid tromethamine salt] as the molecule, how does the “ED50 IA9” value [2] read?
A: 0.88 µg/mL

Q: And the “ED50 SK-MEL-2” value [3]?
A: 2.0 µg/mL

Q: What about the “ED50 HOS” value (bone (HOS) cell line) of the same molecule?
A: 5.0 µg/mL

Q: What about the “ED50 HCT-8” value [4] of the same molecule?
A: 1.20 µg/mL

Q: And the “ED50 (cytotoxicity against A-549)” value [1]?
A: 2.4 µg/mL

Q: What about the “ED50 U87-MG” value [5] of the same molecule?
A: 5.0 µg/mL
